Measurements: US6395773B1, “Anti-drug resistant strain agents and antichlamydia agents” (Japan Science and Technology Corporation, priority 1999, dated 2002)
In brackets after ≈: the same amount, converted by molar mass.

Tests used:
[1] = test system: methicillin-sensitive Staphylococcus aureus (MSSA); assay: Effect on decreasing antibiotic resistance by concomitant use of FNQ3, MSSA; settings: for MIC: Staphylococcus aureus, 24 h, read-out: MIC of antibiotic, −FNQ3; for MIC of antibiotic, +FNQ3: concomitant FNQ3, final concentration 0.5 μg/ml
[2] = test system: methicillin-resistant Staphylococcus aureus (MRSA); assay: Effect on decreasing antibiotic resistance by concomitant use of FNQ3, MRSA; settings: for MIC: Staphylococcus aureus, 24 h, read-out: MIC of antibiotic, −FNQ3; for MIC of antibiotic, +FNQ3: concomitant FNQ3, final concentration 0.5 μg/ml; for decrease of the resistance of MRSA against the antibiotic (fraction of MIC): with the Compound (FNQ3) 0.5 μg/ml
Staphylococcus aureus = assay: FNQ3 alone, growth of Staphylococcus aureus; settings: 0.5 μg/ml
[3] = test system: all tested strains of Chlamydia; assay type: cell-based; settings: tendency; McCoy and WI38 versus HeLa229
C. psittaci = assay: microbe, parasite or virus in culture; assay type: cell-based; settings: Chlamydia psittaci, strain Cal 10
C. pneumoniae = assay: microbe, parasite or virus in culture; assay type: cell-based; settings: Chlamydia pneumoniae
C. trachomatis = assay: microbe, parasite or virus in culture; assay type: cell-based; settings: Chlamydia trachomatis
[4] = test system: fluconazole-sensitive Candida albicans (FSCA); assay: Proliferation inhibitory test for Candida albicans (agar medium MIC), FSCA
[5] = test system: fluconazole-resistant Candida albicans (FRCA); assay: Proliferation inhibitory test for Candida albicans (agar medium MIC), FRCA; settings: for MIC: Candida albicans
[6] = test system: methicillin-sensitive Staphylococcus aureus (MSSA); assay: Proliferation inhibitory test for Staphylococcus aureus (agar medium MIC), MSSA; settings: for MIC: Staphylococcus aureus, MSSA
[7] = test system: methicillin-resistant Staphylococcus aureus (MRSA); assay: Proliferation inhibitory test for Staphylococcus aureus (agar medium MIC), MRSA; settings: for MIC: Staphylococcus aureus, MRSA

CC1(C)S[C@@H]2[C@H](NC(=O)[C@H](N)c3ccccc3)C(=O)N2[C@H]1C(=O)O [Ampicillin]
MIC [1]: 32 µg/mL
MIC of antibiotic, +FNQ3 [1]: 16 to 32 µg/mL
MIC [2]: 32 µg/mL
MIC of antibiotic, +FNQ3 [2]: 4 µg/mL
decrease of the resistance of MRSA against the antibiotic (fraction of MIC) [2]: ½ to ¼

CN[C@H](CC(C)C)C(=O)N[C@H]1C(=O)N[C@@H](CC(N)=O)C(=O)N[C@H]2C(=O)N[C@H]3C(=O)N[C@H](C(=O)N[C@H](C(=O)O)c4cc(O)cc(O)c4-c4cc3ccc4O)[C@H](O)c3ccc(c(Cl)c3)Oc3cc2cc(c3O[C@@H]2O[C@H](CO)[C@@H](O)[C@H](O)[C@H]2O[C@H]2C[C@](C)(N)[C@H](O)[C@H](C)O2)Oc2ccc(cc2Cl)[C@H]1O [Vancomycin]
MIC [1]: 0.6 µg/mL
MIC of antibiotic, +FNQ3 [1]: 0.6 µg/mL
MIC [2]: 2.5 µg/mL
MIC of antibiotic, +FNQ3 [2]: 0.6 to 1.25 µg/mL
decrease of the resistance of MRSA against the antibiotic (fraction of MIC) [2]: ½ to ¼

CN(C)CCn1nnnc1SCC1=C(C(=O)O)N2C(=O)[C@@H](NC(=O)Cc3csc(N)n3)[C@H]2SC1 [Cefotiam]
MIC [1]: 0.25 to 0.5 µg/mL
MIC of antibiotic, +FNQ3 [1]: 0.25 µg/mL
MIC [2]: 32 µg/mL
MIC of antibiotic, +FNQ3 [2]: 16 to 32 µg/mL

CC[C@H]1OC(=O)[C@H](C)[C@@H](O[C@H]2C[C@@](C)(OC)[C@@H](O)[C@H](C)O2)[C@H](C)[C@@H](O[C@@H]2O[C@H](C)C[C@H](N(C)C)[C@H]2O)[C@](C)(O)C[C@@H](C)/C(=N\OCOCCOC)[C@H](C)[C@@H](O)[C@]1(C)O [Roxithromycin]
MIC [1]: 1 µg/mL
MIC of antibiotic, +FNQ3 [1]: 1 µg/mL
MIC [2]: 16 µg/mL
MIC of antibiotic, +FNQ3 [2]: 16 µg/mL

CN(C)c1ccc(O)c2c1C[C@H]1C[C@H]3[C@H](N(C)C)C(O)=C(C(N)=O)C(=O)[C@@]3(O)C(O)=C1C2=O [Minacycline]
MIC [1]: 0.25 µg/mL
MIC of antibiotic, +FNQ3 [1]: 0.25 µg/mL
MIC [2]: 8 µg/mL
MIC of antibiotic, +FNQ3 [2]: 2 to 4 µg/mL

CC[C@H]1OC(=O)[C@H](C)[C@@H](O[C@H]2C[C@@](C)(OC)[C@@H](O)[C@H](C)O2)[C@H](C)[C@@H](O[C@@H]2O[C@H](C)C[C@H](N(C)C)[C@H]2O)[C@](C)(OC)C[C@@H](C)C(=O)[C@H](C)[C@@H](O)[C@]1(C)O [Clarithromycin]
MIC [1]: 0.5 µg/mL
MIC of antibiotic, +FNQ3 [1]: 0.5 to 1 µg/mL
MIC [2]: 16 µg/mL
MIC of antibiotic, +FNQ3 [2]: 16 µg/mL

Cc1cc2c(o1)C(=O)c1ccccc1C2=O [FNQ3, 2-methylnaphtho[2,3-b]furan-4,9-dione]
influence on the growth of Staphylococcus aureus (Staphylococcus aureus): no influence on the growth
MIC with McCoy and WI38 cells relative to HeLa229 cells [3]: approximately ½
MIC (C. psittaci; HeLa229 cells): 1 µg/mL (≈ 4.71 µM)
MIC (C. psittaci; McCoy cells): 0.5 µg/mL (≈ 2.36 µM)
MIC (C. psittaci; WI 38 cells): 0.25 µg/mL (≈ 1.18 µM)
MIC (C. pneumoniae; strain KKpn-1, HeLa229 cells): 0.25 µg/mL (≈ 1.18 µM)
MIC (C. pneumoniae; strain KKpn-1, McCoy cells): 0.25 µg/mL (≈ 1.18 µM)
MIC (C. pneumoniae; strain TW-183, HeLa229 cells): 0.6 µg/mL (≈ 2.83 µM)
MIC (C. trachomatis; strain D, HeLa229 cells): 1 µg/mL (≈ 4.71 µM)
MIC (C. trachomatis; strain F, HeLa229 cells): 1 µg/mL (≈ 4.71 µM)
MIC (C. trachomatis; strain L2, HeLa229 cells): 1 µg/mL (≈ 4.71 µM)
MIC (C. trachomatis; strain L2, McCoy cells): 0.6 µg/mL (≈ 2.83 µM)
MIC (C. trachomatis; strain L2, WI 38 cells): 0.5 µg/mL (≈ 2.36 µM)

N[C@@H](C(=O)N[C@@H]1C(=O)N2C(C(=O)O)=C(Cl)CS[C@H]12)c1ccccc1 [cefaclor]
MIC [1]: 1 µg/mL
MIC of antibiotic, +FNQ3 [1]: 1 µg/mL
MIC [2]: 64 µg/mL
MIC of antibiotic, +FNQ3 [2]: 16 µg/mL
decrease of the resistance of MRSA against the antibiotic (fraction of MIC) [2]: ½ to ¼

Cc1cc2c(o1)C(=O)c1c(O)cccc1C2=O [FNQ13, 8-hydroxy-2-methylnaphtho[2,3-b]furan-4,9-dione]
MIC ([4]; Candida albicans): 4 µg/mL (≈ 17.5 µM)
MIC ([4]; Candida albicans, TIMM0239): 2 µg/mL (≈ 8.76 µM)
MIC ([4]; Candida albicans, TIMM1756): 2 µg/mL (≈ 8.76 µM)
MIC ([4]; Candida albicans, TIMM1850): 2 µg/mL (≈ 8.76 µM)
MIC ([4]; FSCA strain TA): 4 µg/mL (≈ 17.5 µM)
MIC ([5]; FRCA strain CA383): 2 µg/mL (≈ 8.76 µM)
MIC ([5]; FRCA strain CA8941): 8 µg/mL (≈ 35.1 µM)
MIC ([5]; FRCA strain DUNC136): 4 µg/mL (≈ 17.5 µM)
MIC ([5]; FRCA strain MCV7): 2 µg/mL (≈ 8.76 µM)
MIC ([5]; FRCA strain S78941): 4 µg/mL (≈ 17.5 µM)
MIC ([5]; FRCA strain T77042): 2 µg/mL (≈ 8.76 µM)
antibacterial activity against FRCA compared with FSCA ([5]; FRCA (resistant strain) versus FSCA (sensitive strain)): same degree of antibacterial activity
MIC ([6]; MSSA strain 1 (Patient)): 25 µg/mL (≈ 110 µM)
MIC ([6]; MSSA strain 2 (Patient)): 6.25 µg/mL (≈ 27.4 µM)
MIC ([6]; MSSA strain 3 (Patient)): 12.5 µg/mL (≈ 54.8 µM)
MIC ([6]; MSSA strain 4 (Patient)): 12.5 µg/mL (≈ 54.8 µM)
MIC ([6]; MSSA strain 5 (Patient)): 12.5 µg/mL (≈ 54.8 µM)
MIC ([6]; MSSA strain 6 (Patient)): 6.25 µg/mL (≈ 27.4 µM)
MIC ([6]; MSSA strain 7 (Patient)): 6.25 µg/mL (≈ 27.4 µM)
MIC ([6]; MSSA strain 8 (Patient)): 12.5 µg/mL (≈ 54.8 µM)
MIC ([6]; MSSA strain 9 (Patient)): 12.5 µg/mL (≈ 54.8 µM)
MIC ([6]; MSSA strain 10 (Patient)): 12.5 µg/mL (≈ 54.8 µM)
MIC ([6]; MSSA strain 11 (Patient)): 12.5 µg/mL (≈ 54.8 µM)
MIC ([6]; MSSA strain 12 (1840)): 12.5 µg/mL (≈ 54.8 µM)
MIC ([6]; read-out: MIC, Mean ± standard deviation, mean over 12 MSSA strains, p < 0.01): 12 µg/mL (≈ 52.5 µM)
MIC, Mean ± standard deviation ([6]; mean over 12 MSSA strains, p < 0.01): 11.98 ± 4.9 µg/mL (≈ 52.5 µM)
MIC ([7]; MRSA strain 1 (Patient)): 6.25 µg/mL (≈ 27.4 µM)
MIC ([7]; MRSA strain 2 (Patient)): 3.13 µg/mL (≈ 13.7 µM)
MIC ([7]; MRSA strain 3 (Patient)): 3.13 µg/mL (≈ 13.7 µM)
MIC ([7]; MRSA strain 4 (Patient)): 12.5 µg/mL (≈ 54.8 µM)
MIC ([7]; MRSA strain 5 (Patient)): 12.5 µg/mL (≈ 54.8 µM)
MIC ([7]; MRSA strain 6 (Patient)): 3.13 µg/mL (≈ 13.7 µM)
MIC ([7]; MRSA strain 7 (Patient)): 6.25 µg/mL (≈ 27.4 µM)
MIC ([7]; MRSA strain 8 (Patient)): 3.13 µg/mL (≈ 13.7 µM)
MIC ([7]; MRSA strain 9 (Patient)): 6.25 µg/mL (≈ 27.4 µM)
MIC ([7]; MRSA strain 10 (Patient)): 3.13 µg/mL (≈ 13.7 µM)
MIC ([7]; MRSA strain 11 (Patient)): 6.25 µg/mL (≈ 27.4 µM)
MIC ([7]; MRSA strain 12 (N133)): 1.56 µg/mL (≈ 6.84 µM)
MIC ([7]; MRSA strain 13 (OF4)): 1.56 µg/mL (≈ 6.84 µM)
MIC ([7]; MRSA strain 14 (N295)): 6.25 µg/mL (≈ 27.4 µM)
MIC ([7]; read-out: MIC, Mean ± standard deviation, mean over 14 MRSA strains): 5.36 µg/mL (≈ 23.5 µM)
MIC, Mean ± standard deviation ([7]; mean over 14 MRSA strains): 5.36 ± 3.5 µg/mL (≈ 23.5 µM)

OC(Cn1cncn1)(Cn1cncn1)c1ccc(F)cc1F [FLCZ, fluconazole, reference compound]
MIC ([4]; Candida albicans): 0.03 µg/mL (≈ 0.098 µM)
MIC ([4]; Candida albicans, TIMM0239): 0.13 µg/mL (≈ 0.424 µM)
MIC ([4]; Candida albicans, TIMM1756): 0.06 µg/mL (≈ 0.196 µM)
MIC ([4]; Candida albicans, TIMM1850): 0.06 µg/mL (≈ 0.196 µM)
MIC ([4]; FSCA strain TA): 0.03 µg/mL (≈ 0.098 µM)
MIC ([5]; FRCA strain CA383): > 64 µg/mL
MIC ([5]; FRCA strain CA8941): > 64 µg/mL
MIC ([5]; FRCA strain DUNC136): > 64 µg/mL
MIC ([5]; FRCA strain MCV7): 32 µg/mL (≈ 104 µM)
MIC ([5]; FRCA strain S78941): > 64 µg/mL
MIC ([5]; FRCA strain T77042): > 64 µg/mL

C[C@H]1COc2c(N3CCN(C)CC3)c(F)cc3c(=O)c(C(=O)O)cn1c23 [Levofloxacin]
MIC [1]: 0.25 µg/mL
MIC of antibiotic, +FNQ3 [1]: 0.25 µg/mL
MIC [2]: 8 µg/mL
MIC of antibiotic, +FNQ3 [2]: 4 µg/mL
